Source: patent EP4667467A1, “PROTAC DEGRADERS OF MLLT1 AND/OR MLLT3” (Dark Blue Therapeutics Ltd, priority 2024, dated 2025)

Molecular target: T1, MLLT1 (Homo sapiens, UniProt Q03111)
T1 construct: endogenous in cells; host or cells: MV4-11 (ATCC CRL-9591)
T1 sequence (Q03111 1-559): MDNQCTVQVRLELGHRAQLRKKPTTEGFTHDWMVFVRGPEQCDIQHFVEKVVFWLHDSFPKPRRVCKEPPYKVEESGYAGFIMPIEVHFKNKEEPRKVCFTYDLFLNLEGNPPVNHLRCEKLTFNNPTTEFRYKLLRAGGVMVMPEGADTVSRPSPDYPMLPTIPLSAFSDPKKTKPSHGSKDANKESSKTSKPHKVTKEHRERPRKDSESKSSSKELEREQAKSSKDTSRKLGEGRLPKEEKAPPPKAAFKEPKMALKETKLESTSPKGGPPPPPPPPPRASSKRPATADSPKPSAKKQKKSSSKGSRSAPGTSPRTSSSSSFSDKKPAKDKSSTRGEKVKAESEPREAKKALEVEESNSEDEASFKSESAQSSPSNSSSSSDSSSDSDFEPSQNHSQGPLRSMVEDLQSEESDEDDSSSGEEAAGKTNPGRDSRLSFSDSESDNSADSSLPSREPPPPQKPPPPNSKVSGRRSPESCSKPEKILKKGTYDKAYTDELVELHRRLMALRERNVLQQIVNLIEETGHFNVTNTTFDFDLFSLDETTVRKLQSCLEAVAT
Test: MLLT1 Degradation Assay (JESS automated chemiluminescent detection, MV4-11 cells)
Format: cell-based
Settings: 24h, with respect to DMSO control; for MLLT1 % Degradation @ 0.01 µM: 0.01 µM (10 nM) test compound; for MLLT1 % Degradation @ 0.1 µM: 0.1 µM (100 nM) test compound; for MLLT 1 % Degradation @ 1 µM: 1 µM (1000 nM) test compound
Method: MLLT1 degradation efficacy of compounds were tested in an automated chemiluminescent detection system (JESS, Cat# 004-650). […] 10 mM DMSO stocks were prepared, and cells were treated with three concentrations of test compounds viz. 1000, 100 and 10 nM at a final DMSO concentration of 0.1% and incubated for 24h at 37°C, 5% CO2. […] Post run, data were analysed using "Compass for SW" software for chemiluminescent detection. The peak area for each band was used for the calculation of MLLT1 degradation with respect to DMSO control. Data is shown as "MLLT1 % degradation".

Question: `CN1CCC[C@@H]1c1cc2cnc(NC(=O)N3CCC(CCC#Cc4cccc5c4CN(C4CCC(=O)NC4=O)C5=O)CC3)cc2[nH]1` (stereo partly drawn) [Example 1, 4-(4-(2-(2,6-dioxopiperidin-3-yl)-1-oxoisoindolin-4-yl)but-3-yn-1-yl)-N-(2-((R)-1-methylpyrrolidin-2-yl)-1H-pyrrolo[3,2-c]pyridin-6-yl)piperidine-1-carboxamide] was tested. Which “MLLT1 % Degradation @ 0.01 µM” value did it give?
Answer: Its value is “C (Category C: 25% ≤ C < 50% degradation)”.

Question: What about the “MLLT1 % Degradation @ 0.1 µM” value of the same molecule?
Answer: The value was “C (Category C: 25% ≤ C < 50% degradation)”.

Question: What about the “MLLT 1 % Degradation @ 1 µM” value of the same molecule?
Answer: Its value is “C (Category C: 25% ≤ C < 50% degradation)”.

Question: With `CN1CCC[C@@H]1c1cc2cnc(NC(=O)c3ccc(N4CCN(CC5CCN(c6cccc7c6C(=O)N(C6CCC(=O)NC6=O)C7=O)CC5)CC4)nc3)cc2[nH]1` (stereo partly drawn) [Example 5, 6-(4-((1-(2-(2,6-dioxopiperidin-3-yl)-1,3-dioxoisoindolin-4-yl)piperidin-4-yl)methyl)piperazin-1-yl)-N-(2-((R)-1-methylpyrrolidin-2-yl)-1H-pyrrolo[3,2-c]pyridin-6-yl)nicotinamide] as the molecule, how does the “MLLT1 % Degradation @ 0.01 µM” value read?
Answer: The value was “B (Category B: 50% ≤ B < 75% degradation)”.

Question: What about the “MLLT1 % Degradation @ 0.1 µM” value of the same molecule?
Answer: The value was “A (Category A: A ≥ 75% degradation)”.

Question: What about the “MLLT 1 % Degradation @ 1 µM” value of the same molecule?
Answer: The value was “A (Category A: A ≥ 75% degradation)”.

Question: With `CN1CCC[C@@H]1c1cc2cnc(NC(=O)c3ccc(CCCNc4cccc5c4C(=O)N(C4CCC(=O)NC4=O)C5=O)cc3)cc2[nH]1` (stereo partly drawn) [Example 36, 4-(3-{[2-(2,6-dioxopiperidin-3-yl)-1,3-dioxoisoindol-4-yl]amino}propyl)-N-{2-[(2R)-1-methylpyrrolidin-2-yl]-1H-pyrrolo[3,2-c]pyridin-6-yl}benzamide] as the molecule, how does the “MLLT1 % Degradation @ 0.01 µM” value read?
Answer: The value was “A (Category A: A ≥ 75% degradation)”.

Question: What about the “MLLT1 % Degradation @ 0.1 µM” value of the same molecule?
Answer: The value was “A (Category A: A ≥ 75% degradation)”.

Question: And the “MLLT 1 % Degradation @ 1 µM” value?
Answer: Its value is “A (Category A: A ≥ 75% degradation)”.

Question: Which “MLLT1 % Degradation @ 0.01 µM” value does the source give for `CN1CCC[C@@H]1c1cc2cnc(NC(=O)c3ccc(OCC#Cc4cccc5c4CN(C4CCC(=O)NC4=O)C5=O)nc3)cc2[nH]1` (stereo partly drawn) [Example 2, 6-((3-(2-(2,6-dioxopiperidin-3-yl)-1-oxoisoindolin-4-yl)prop-2-yn-1-yl)oxy)-N-(2-((R)-1-methylpyrrolidin-2-yl)-1H-pyrrolo[3,2-c]pyridin-6-yl)nicotinamide] here?
Answer: Its value is “A (Category A: A ≥ 75% degradation)”.

Question: What about the “MLLT1 % Degradation @ 0.1 µM” value of the same molecule?
Answer: The value was “A (Category A: A ≥ 75% degradation)”.

Question: And the “MLLT 1 % Degradation @ 1 µM” value?
Answer: The value was “A (Category A: A ≥ 75% degradation)”.

Question: For `CN1CCC[C@@H]1c1cc2cnc(NC(=O)c3ccc(CCCCC#Cc4cccc5c4CN(C4CCC(=O)NC4=O)C5=O)cc3)cc2[nH]1` (stereo partly drawn) [Example 8, 4-(6-(2-(2,6-dioxopiperidin-3-yl)-1-oxoisoindolin-4-yl)hex-5-yn-1-yl)-N-(2-((R)-1-methylpyrrolidin-2-yl)-1H-pyrrolo[3,2-c]pyridin-6-yl)benzamide], which “MLLT1 % Degradation @ 0.01 µM” value is on record?
Answer: The value was “A (Category A: A ≥ 75% degradation)”.

Question: And the “MLLT1 % Degradation @ 0.1 µM” value?
Answer: Its value is “A (Category A: A ≥ 75% degradation)”.

Question: What about the “MLLT 1 % Degradation @ 1 µM” value of the same molecule?
Answer: Its value is “A (Category A: A ≥ 75% degradation)”.

Question: What does the source list for `CN1CCC[C@@H]1c1cc2cnc(NC(=O)c3ccc(-c4ccn(CCCC#Cc5cccc6c5CN(C5CCC(=O)NC5=O)C6=O)n4)cc3)cc2[nH]1` (mixture of isomers) [Example 20, 4-(1-(5-(2-(2,6-dioxopiperidin-3-yl)-1-oxoisoindolin-4-yl)pent-4-yn-1-yl)-1H-pyrazol-3-yl)-N-(2-((R)-1-methylpyrrolidin-2-yl)-1H-pyrrolo[3,2-c]pyridin-6-yl)benzamide]?
Answer: MLLT1 % Degradation @ 0.01 µM: B (Category B: 50% ≤ B < 75% degradation); MLLT1 % Degradation @ 0.1 µM: B (Category B: 50% ≤ B < 75% degradation); MLLT 1 % Degradation @ 1 µM: C (Category C: 25% ≤ C < 50% degradation)

Question: Which results are given for `CN1CCC[C@@H]1c1cc2cnc(NC(=O)CCCC3CCN(c4cccc5c4C(=O)N(C4CCC(=O)NC4=O)C5=O)CC3)cc2[nH]1` (stereo partly drawn) [Example 41, 4-(1-(2-(2,6-dioxopiperidin-3-yl)-1,3-dioxoisoindolin-4-yl)piperidin-4-yl)-N-(2-((R)-1-methylpyrrolidin-2-yl)-1H-pyrrolo[3,2-c]pyridin-6-yl)butanamide]?
Answer: MLLT1 % Degradation @ 0.01 µM: B (Category B: 50% ≤ B < 75% degradation); MLLT1 % Degradation @ 0.1 µM: B (Category B: 50% ≤ B < 75% degradation); MLLT 1 % Degradation @ 1 µM: A (Category A: A ≥ 75% degradation)

Question: Which results are given for `CN1CCC[C@@H]1c1cc2cnc(NC(=O)c3ccc(CCCC#Cc4ccc(C(=O)N[C@H]5CCC(=O)NC5=O)nc4)cc3)cc2[nH]1` [Example 11, N-((S)-2,6-dioxopiperidin-3-yl)-5-(5-(4-((2-((R)-1-methylpyrrolidin-2-yl)-1H-pyrrolo[3,2-c]pyridin-6-yl)carbamoyl)phenyl)pent-1-yn-1-yl)picolinamide]?
Answer: MLLT1 % Degradation @ 0.01 µM: D (Category D: D < 25% degradation); MLLT1 % Degradation @ 0.1 µM: C (Category C: 25% ≤ C < 50% degradation); MLLT 1 % Degradation @ 1 µM: B (Category B: 50% ≤ B < 75% degradation)

Question: What does the source list for “3-(1-(3-(1-(2-(2,6-dioxopiperidin-3-yl)-1,3-dioxoisoindolin-4-yl)piperidin-4-yl)propyl)-1H-pyrazol-4-yl)-N-(2-((R)-1-methylpyrrolidin-2-yl)-1H-pyrrolo[3,2-c]pyridin-6-yl)benzamide [Example 47]”?
Answer: MLLT1 % Degradation @ 0.01 µM: C (Category C: 25% ≤ C < 50% degradation); MLLT1 % Degradation @ 0.1 µM: B (Category B: 50% ≤ B < 75% degradation); MLLT 1 % Degradation @ 1 µM: A (Category A: A ≥ 75% degradation)

Question: With `CN1CCC[C@@H]1c1cc2cnc(NC(=O)c3ccc(CCC#Cc4cccc5c4n(C)c(=O)n5C4CCC(=O)NC4=O)cc3)cc2[nH]1` (stereo partly drawn) [Example 53, 4-(4-(1-(2,6-dioxopiperidin-3-yl)-3-methyl-2-oxo-2,3-dihydro-1H-benzo[d]imidazol-4-yl)but-3-yn-1-yl)-N-(2-((R)-1-methylpyrrolidin-2-yl)-1H-pyrrolo[3,2-c]pyridin-6-yl)benzamide] as the molecule, how does the “MLLT1 % Degradation @ 0.01 µM” value read?
Answer: Its value is “A (Category A: A ≥ 75% degradation)”.

Question: What about the “MLLT1 % Degradation @ 0.1 µM” value of the same molecule?
Answer: The value was “A (Category A: A ≥ 75% degradation)”.

Question: And the “MLLT 1 % Degradation @ 1 µM” value?
Answer: Its value is “B (Category B: 50% ≤ B < 75% degradation)”.

Question: What does the source list for `CN1CCCC1c1cc2cnc(NC(=O)c3ccc(OCC#Cc4cccc5c4CN(C4CCC(=O)NC4=O)C5=O)cn3)cc2[nH]1` (centres unmarked) [Example 50, 5-[3-[2-(2,6-dioxo-3-piperidyl)-1-oxo-isoindolin-4-yl]prop-2-ynoxy]-N-[2-(1-methylpyrrolidin-2-yl)-1H-pyrrolo[3,2-c]pyridin-6-yl]pyridine-2-carboxamide]?
Answer: MLLT1 % Degradation @ 0.01 µM: B (Category B: 50% ≤ B < 75% degradation); MLLT1 % Degradation @ 0.1 µM: B (Category B: 50% ≤ B < 75% degradation); MLLT 1 % Degradation @ 1 µM: B (Category B: 50% ≤ B < 75% degradation)

Question: What does the source list for `CN1CCC[C@@H]1c1cc2cnc(NC(=O)c3ccc(CCC#Cc4cccc5c4CN(C4CCC(=O)NC4=O)C5=O)cc3)cc2[nH]1` (stereo partly drawn) [Example 52, 4-(4-(2-(2,6-dioxopiperidin-3-yl)-1-oxoisoindolin-4-yl)but-3-yn-1-yl)-N-(2-((R)-1-methylpyrrolidin-2-yl)-1H-pyrrolo[3,2-c]pyridin-6-yl)benzamide]?
Answer: MLLT1 % Degradation @ 0.01 µM: A (Category A: A ≥ 75% degradation); MLLT1 % Degradation @ 0.1 µM: A (Category A: A ≥ 75% degradation); MLLT 1 % Degradation @ 1 µM: B (Category B: 50% ≤ B < 75% degradation)

Question: For `CN1CCC[C@@H]1c1cc2cnc(NC(=O)COCCCCNc3cccc4c3C(=O)N(C3CCC(=O)NC3=O)C4=O)cc2[nH]1` (stereo partly drawn) [Example 40, 2-(4-((2-(2,6-dioxopiperidin-3-yl)-1,3-dioxoisoindolin-4-yl)amino)butoxy)-N-(2-((R)-1-methylpyrrolidin-2-yl)-1H-pyrrolo[3,2-c]pyridin-6-yl)acetamide], which “MLLT1 % Degradation @ 0.1 µM” value is on record?
Answer: The value was “C (Category C: 25% ≤ C < 50% degradation)”.

Question: What about the “MLLT 1 % Degradation @ 1 µM” value of the same molecule?
Answer: The value was “B (Category B: 50% ≤ B < 75% degradation)”.

Question: What does the source list for `C[C@H](C#Cc1cccc2c1CN(C1CCC(=O)NC1=O)C2=O)Oc1ccc(C(=O)Nc2cc3[nH]c([C@H]4CCCN4C)cc3cn2)cc1` (stereo partly drawn) [Example 25, 4-(((2R)-4-(2-(2,6-dioxopiperidin-3-yl)-1-oxoisoindolin-4-yl)but-3-yn-2-yl)oxy)-N-(2-((R)-1-methylpyrrolidin-2-yl)-1H-pyrrolo[3,2-c]pyridin-6-yl)benzamide]?
Answer: MLLT1 % Degradation @ 0.01 µM: A (Category A: A ≥ 75% degradation); MLLT1 % Degradation @ 0.1 µM: A (Category A: A ≥ 75% degradation); MLLT 1 % Degradation @ 1 µM: A (Category A: A ≥ 75% degradation)
